PubChem BioAssay AID2060895 (Molecular Pharmacology Branch, DTP, NCI, 2025)

System: PDC 899932-113-R3-J6 complex spheroid viability
Assay: Anticancer human tumor 899932-113-R3-J6-PDC patient-derived melanoma cell line growth inhibition [RAS]
Conditions: for IC50: curve of first compound; for viability, T/C: stronger effect = lower value
Method in brief: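 Tumour cells grown as complex spheroids with HUVEC endothelial cells and mesenchymal stem cells, treated with RAS pathway inhibitor combinations. Each agent spans half-log steps from near clinical Cmax, or 10 microM where Cmax is unknown.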

[1] = second compound 0.000949 µM, first compound 0.0316 µM
[2] = second compound 0.000949 µM, first compound 0.1 µM
[3] = second compound 0.000949 µM, first compound 0.316 µM
[4] = second compound 0.000949 µM, first compound 1 µM
[5] = second compound 0.003 µM, first compound 0.0316 µM
[6] = second compound 0.003 µM, first compound 0.1 µM
[7] = second compound 0.003 µM, first compound 0.316 µM
[8] = second compound 0.003 µM, first compound 1 µM
[9] = second compound 0.00949 µM, first compound 0.0316 µM
[10] = second compound 0.00949 µM, first compound 0.1 µM
[11] = second compound 0.00949 µM, first compound 0.316 µM
[12] = second compound 0.00949 µM, first compound 1 µM
[13] = second compound 0.03 µM, first compound 0.0316 µM
[14] = second compound 0.03 µM, first compound 0.1 µM
[15] = second compound 0.03 µM, first compound 0.316 µM
[16] = second compound 0.03 µM, first compound 1 µM
[17] = second compound 0.0949 µM, first compound 0.0316 µM
[18] = second compound 0.0949 µM, first compound 0.1 µM
[19] = second compound 0.0949 µM, first compound 0.316 µM
[20] = second compound 0.0949 µM, first compound 1 µM
[21] = second compound 0.3 µM, first compound 0.0316 µM
[22] = second compound 0.3 µM, first compound 0.1 µM
[23] = second compound 0.3 µM, first compound 0.316 µM
[24] = second compound 0.3 µM, first compound 1 µM
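Throughout, for viability, T/C: spheroids exposed to agents for seven days before readout; 100% = DMSO vehicle control wells.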

`NC1c2ccccc2OC12CCN(c1cnc3c(N4CCCc5ncccc54)n[nH]c3n1)CC2` (stereo not given) + CCn1c(-c2cccnc2C(C)OC)c2c3cc(ccc31)N1CCOC(CC(NC(=O)C(C(C)C)N(C)C(=O)C3(F)CCN(C(=O)C#CC(C)(C)N(C)C)CC3)C(=O)N3CCCC(N3)C(=O)OCC(C)(C)C2)C1 gave an IC50 (second compound 0.000949 µM) greater than 10000 nM, an IC50 (second compound 0.003 µM) greater than 10000 nM and an IC50 (second compound 0.00949 µM) greater than 10000 nM. It also gave an IC50 (second compound 0.03 µM) greater than 10000 nM, an IC50 (second compound 0.0949 µM) greater than 10000 nM and an IC50 (second compound 0.3 µM) greater than 10000 nM. The viability, T/C [1] was 113%, the viability, T/C [2] was 102% and the viability, T/C [3] was 112%. It also gave a viability, T/C [4] of 120%, a viability, T/C (second compound 0.000949 µM, first compound 3.16 µM) of 114% and a viability, T/C (second compound 0.000949 µM, first compound 10 µM) of 101%. For the same compound, the viability, T/C [5] was 113%, the viability, T/C [6] was 112% and the viability, T/C [7] was 111%. For the same compound, the viability, T/C [8] was 120%, the viability, T/C (second compound 0.003 µM, first compound 3.16 µM) was 111% and the viability, T/C (second compound 0.003 µM, first compound 10 µM) was 110%. It also gave a viability, T/C [9] of 112%, a viability, T/C [10] of 112% and a viability, T/C [11] of 110%. It also gave a viability, T/C [12] of 129%, a viability, T/C (second compound 0.00949 µM, first compound 3.16 µM) of 120% and a viability, T/C (second compound 0.00949 µM, first compound 10 µM) of 109%. For the same compound, the viability, T/C [13] was 112%, the viability, T/C [14] was 116% and the viability, T/C [15] was 105%. The viability, T/C [16] was 117%, the viability, T/C (second compound 0.03 µM, first compound 3.16 µM) was 112% and the viability, T/C (second compound 0.03 µM, first compound 10 µM) was 106%. The viability, T/C [17] was 100%, the viability, T/C [18] was 102% and the viability, T/C [19] was 94.4%. The viability, T/C [20] was 113%, the viability, T/C (second compound 0.0949 µM, first compound 3.16 µM) was 108% and the viability, T/C (second compound 0.0949 µM, first compound 10 µM) was 98.5%. For the same compound, the viability, T/C [21] was 97.7%, the viability, T/C [22] was 85.1% and the viability, T/C [23] was 95.7%. For the same compound, the viability, T/C [24] was 96.8%, the viability, T/C (second compound 0.3 µM, first compound 3.16 µM) was 92.6% and the viability, T/C (second compound 0.3 µM, first compound 10 µM) was 85.7%.
`CCc1c2c(nc3ccc(O)cc13)-c1cc3c(c(=O)n1C2)COC(=O)[C@]3(O)CC` was tested, and the viability, T/C (compound 0.000949 µM) was 94.3% [middle of 4 runs], the viability, T/C (compound 0.003 µM) was 69.3% [middle of 4 runs] and the viability, T/C (compound 0.00949 µM) was 58.9% [middle of 4 runs]. The viability, T/C (compound 0.03 µM) was 48.3% [middle of 4 runs], the viability, T/C (compound 0.0949 µM) was 42.1% [middle of 4 runs] and the viability, T/C (compound 0.3 µM) was 32.8% [middle of 4 runs].
For `CCN1CCN(Cc2ccc(Nc3ncc(F)c(-c4cc(F)c5nc(C)n(C(C)C)c5c4)n3)nc2)CC1` + CCn1c(-c2cccnc2C(C)OC)c2c3cc(ccc31)N1CCOC(CC(NC(=O)C(C(C)C)N(C)C(=O)C3(F)CCN(C(=O)C#CC(C)(C)N(C)C)CC3)C(=O)N3CCCC(N3)C(=O)OCC(C)(C)C2)C1, the IC50 (second compound 0.000949 µM) was greater than 1000 nM, the IC50 (second compound 0.003 µM) was 600 nM and the IC50 (second compound 0.00949 µM) was 510 nM. For the same compound, the IC50 (second compound 0.03 µM) was 520 nM, the IC50 (second compound 0.0949 µM) was 641 nM and the IC50 (second compound 0.3 µM) was greater than 1000 nM. It also gave a viability, T/C (second compound 0.000949 µM, first compound 0.00316 µM) of 105%, a viability, T/C (second compound 0.000949 µM, first compound 0.01 µM) of 104% and a viability, T/C [1] of 99.5%. For the same compound, the viability, T/C [2] was 82.7%, the viability, T/C [3] was 52.9% and the viability, T/C [4] was 52.1%. The viability, T/C (second compound 0.003 µM, first compound 0.00316 µM) was 108%, the viability, T/C (second compound 0.003 µM, first compound 0.01 µM) was 99.6% and the viability, T/C [5] was 96.1%. The viability, T/C [6] was 84.2%, the viability, T/C [7] was 57.6% and the viability, T/C [8] was 43.1%. For the same compound, the viability, T/C (second compound 0.00949 µM, first compound 0.00316 µM) was 105%, the viability, T/C (second compound 0.00949 µM, first compound 0.01 µM) was 106% and the viability, T/C [9] was 96.6%. It also gave a viability, T/C [10] of 85.6%, a viability, T/C [11] of 52.4% and a viability, T/C [12] of 45.4%. It also gave a viability, T/C (second compound 0.03 µM, first compound 0.00316 µM) of 103%, a viability, T/C (second compound 0.03 µM, first compound 0.01 µM) of 97.2% and a viability, T/C [13] of 92.5%. The viability, T/C [14] was 77.7%, the viability, T/C [15] was 52.3% and the viability, T/C [16] was 45.5%. The viability, T/C (second compound 0.0949 µM, first compound 0.00316 µM) was 99.8%, the viability, T/C (second compound 0.0949 µM, first compound 0.01 µM) was 90.6% and the viability, T/C [17] was 88%. It also gave a viability, T/C [18] of 73.1%, a viability, T/C [19] of 55.7% and a viability, T/C [20] of 46.2%. The viability, T/C (second compound 0.3 µM, first compound 0.00316 µM) was 91.4%, the viability, T/C (second compound 0.3 µM, first compound 0.01 µM) was 89.2% and the viability, T/C [21] was 83.4%. It also gave a viability, T/C [22] of 70.5%, a viability, T/C [23] of 49.9% and a viability, T/C [24] of 53.3%.
